This passage reports IC50 results from patent publication US8895585B2, “Nicotinamide derivative or salt thereof” (FUJIFILM Corporation, priority 2010, dated 2014).

Structures are written as SMILES. Bounds are passed on as bounds.

For experiment [1], the target named is T1, glutathione S-transferase (GST)-fused full-length human Syk protein (Homo sapiens, UniProt P43405).
T1 construct: (GST)-fused full-length human Syk protein; GST (glutathione S-transferase); purchased Carna Biosciences
Put plainly: Syk enzyme assay. It counts as biochemical. The conditions noted are these: Syk enzyme assay, Test Example 1; read-out: IC50 of Syk-inhibitory activity. In outline:
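Baculovirus-expressed enzyme (1.2 ng) was preincubated with compound in HEPES pH 7.0/MgCl2/DTT buffer, 2 min shaking then 13 min at room temperature. Biotin-EDPDYEWPSA-NH2 (0.4 μM final) and ATP (27 μM final) were added for 40 min at room temperature. EDTA stop, streptavidin-XL/PT66-K TR-FRET at 615/665 nm gave IC50.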

Experiment [2] concerns THP-1 cells. Nature of the experiment: TNFα generation assay. It counts as cell-based, human. The conditions noted are these: Homo sapiens, THP-1, THP-1 cells; Table 22; read-out: IC50 in TNFα generation assay. The method in brief: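 THP-1 cells differentiated to macrophage-like cells with 10 ng/ml IFN-γ for 2 days, preincubated with compound 30 min at room temperature, then cultured 7 h on plates coated with human IgG (10 μg/ml). Secreted TNFα measured by ELISA or AlphaLISA.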

Experiment [3] relates to THP-1 cells. Nature of the experiment: Antibody-dependent phagocytosis assay. It counts as cell-based. The conditions noted are these: Homo sapiens; THP-1 cells induced to differentiate with IFNγ; opsonized Escherichia coli; Table 23; read-out: IC50 upon phagocytosis inhibition. Here is the method:
THP-1 cells (2×10^5 cells/ml) which are human monocyte-like cell line were cultured in the presence of 10 ng/ml IFNγ for 2 days, so that the cells were induced to differentiate into macrophage-like cells. THP-1 cells that had been induced to differentiate were collected. The cells (5×10^4 cells/well) were reacted with test compounds having given concentrations at room temperature for 30 minutes. Thereafter, Escherichia coli (Life Technologies) labeled with a pH-sensitive dye (pHrodo) was subjected to opsonization using an anti-Escherichia coli antibody (Molecular Probes). Then, the resultant was added to THP-1 cells mixed with test compounds that had been induced to differentiate, followed by incubation at 37° C. for 3 hours. At the time of addition of opsonized Escherichia coli, cell-permeable fluorescent dye (Calcein AM) were simultaneously added thereto, and phagocytosis of opsonized Escherichia coli in viable cells was quantitatively determined using an IN Cell Analyzer.
In addition, the following are used in Table 23 to denote standards for evaluating IC50 upon phagocytosis inhibition. • A: Up to 1 μM • B: 1 to 3 μM • C: 3 to 6 μM

For `CCOc1nccc(Nc2nc(N[C@@H]3CCCC[C@@H]3N)c(F)cc2C(N)=O)c1F` [Example 006-433, 6-(((1R,2S)-2-aminocyclohexyl)amino)-2-((2-ethoxy-3-fluoropyridin-4-yl)amino)-5-fluoronicotinamide], the IC50 was below 10 nM in experiment [1], 65 to 130 nM in the experiment with THP-1 cells [2] and 1000 to 3000 nM in the experiment on THP-1 cells [3].
For `Cc1ncc(Nc2nc(NC3CCCCC3N)c(F)cc2C(N)=O)cc1-n1nccn1` (stereo not shown) [Example 002-134], in that order: below 10 nM, 65 to 130 nM and 1000 to 3000 nM.
The corresponding values for `COc1cncc(Nc2nc(N[C@@H]3CCCC[C@@H]3N)c(F)cc2C(N)=O)c1` [Example 004-031] are below 10 nM, 130 to 200 nM and 1000 to 3000 nM.
As for `CCC(N)CNc1nc(Nc2ccc3ncccc3c2)c(C(N)=O)cc1F` (stereo not shown) [Example 014-001], the IC50 was below 10 nM in experiment [1], below 65 nM with THP-1 cells [2] and 1000 to 3000 nM in the experiment on THP-1 cells [3].
The corresponding values for `COCCOc1cc(Nc2nc(N[C@@H](CN)CC(C)C)c(F)cc2C(N)=O)ccn1` [Example 006-157, (R)-6-((1-amino-4-methylpentan-2-yl)amino)-5-fluoro-2-((2-(2-methoxyethoxy)pyridin-4-yl)amino)nicotinamide] are below 10 nM, 65 to 130 nM and below 1000 nM.
For `CC(=O)Nc1cccc2cc(Nc3nc(N[C@@H]4CCCC[C@@H]4N)c(F)cc3C(N)=O)cnc12` [Example 004-008], in that order: below 10 nM, below 65 nM and below 1000 nM.
Turning to `CC[C@@H](Nc1nc(Nc2cncc(-c3ccccc3)c2)c(C(N)=O)cc1F)[C@H](C)N` [Example 006-270, 6-(((2S,3R)-2-aminopentan-3-yl)amino)-5-fluoro-2-((5-phenylpyridin-3-yl)amino)nicotinamide], the IC50 was below 10 nM in experiment [1], below 65 nM in the experiment on THP-1 cells [2] and 1000 to 3000 nM in the experiment with THP-1 cells [3].
With `Cc1ncc(Nc2nc(N[C@@H]3CCCC[C@@H]3N)c(F)cc2C(N)=O)cc1-c1ccco1` [Example 006-376, 6-(((1R,2S)-2-aminocyclohexyl)amino)-5-fluoro-2-((5-(furan-2-yl)-6-methylpyridin-3-yl)amino)nicotinamide], the IC50 in experiment [1] is below 10 nM; with THP-1 cells [2], below 65 nM; with THP-1 cells [3], 1000 to 3000 nM.
The corresponding values for `CC[C@@H](Nc1nc(Nc2cncc(-c3ccccc3F)c2)c(C(N)=O)cc1F)[C@H](C)N` [Example 006-257, 6-(((2S,3R)-2-aminopentan-3-yl)amino)-5-fluoro-2-((5-(2-fluorophenyl)pyridin-3-yl)amino)nicotinamide] are below 10 nM, below 65 nM and 1000 to 3000 nM.
The corresponding values for `Cn1ccc2c(Nc3nc(N[C@@H]4CCCC[C@@H]4N)c(F)cc3C(N)=O)ccnc21` [Example 004-013] are below 10 nM, below 65 nM and 1000 to 3000 nM.
With `N#Cc1cc(Nc2nc(N[C@@H]3CCCC[C@@H]3N)c(F)cc2C(N)=O)cnc1N1CCOCC1` (relative stereo) [Example 004-228, 6-((cis-2-aminocyclohexyl)amino)-2-((5-cyano-6-morpholinopyridin-3-yl)amino)-5-fluoronicotinamide], the results for the IC50 (in experiment [1]; in the experiment on THP-1 cells [2]; with THP-1 cells [3]) were 10 to 50 nM, 65 to 130 nM and 1000 to 3000 nM, respectively.
The corresponding values for `NC(=O)c1cc(F)c(NC2CCCCC2N)nc1Nc1cncc(-c2ccccc2)c1` (stereo not shown) [Example 002-001] are below 10 nM, below 65 nM and 1000 to 3000 nM.
For `CCC[C@@H](Nc1nc(Nc2cncc(-n3cccn3)c2)c(C(N)=O)cc1F)[C@H](C)N` [Example 006-219, 2-((5-(1H-pyrazol-1-yl)pyridin-3-yl)amino)-6-(((2S,3R)-2-aminohexan-3-yl)amino)-5-fluoronicotinamide], the IC50 in experiment [1] is below 10 nM; with THP-1 cells [2], 65 to 130 nM; with THP-1 cells [3], 1000 to 3000 nM.
For the compound `Cc1cc(Nc2nc(N[C@@H](CN)CC(C)C)c(F)cc2C(N)=O)cnc1C` [Example 006-177, (R)-6-((1-amino-4-methylpentan-2-yl)amino)-2-((5,6-dimethylpyridin-3-yl)amino)-5-fluoronicotinamide], the IC50 in experiment [1] is below 10 nM; in the experiment with THP-1 cells [2], 130 to 200 nM; in the experiment with THP-1 cells [3] it was 1000 to 3000 nM.
The corresponding values for `CCn1ncc2cc(Nc3nc(N[C@H](CC(C)C)[C@H](C)N)c(F)cc3C(N)=O)ccc21` [Example 006-384, 6-(((2S,3R)-2-amino-5-methylhexan-3-yl)amino)-2-((1-ethyl-1H-indazol-5-yl)amino)-5-fluoronicotinamide] are below 10 nM, below 65 nM and below 1000 nM.
Turning to `COc1cccc2cc(Nc3nc(N[C@@H]4CCCC[C@@H]4N)c(F)cc3C(N)=O)cnc12` (relative stereo) [Example 004-120, 6-(cis-2-aminocyclohexylamino)-5-fluoro-2-((8-methoxyquinolin-3-yl)amino)nicotinamide], the IC50 in experiment [1] was below 10 nM; in the experiment on THP-1 cells [3], below 1000 nM.
For `NC(=O)c1cc(F)c(NC2CCCCC2N)nc1Nc1cccc(C(F)(F)F)c1` (stereo not shown) [Example 008-007], in that order: below 10 nM and 3000 to 6000 nM.
Turning to `NC(=O)c1cc(Nc2nc(NC3CCCC[C@@H]3N)c(F)cc2C(N)=O)ccn1` (stereo partly shown) [Example 029-012], in the experiment on THP-1 cells [3], the IC50 lay within 3000 to 6000 nM.
For the compound `CC[C@@H](Nc1nc(Nc2ccnc(-c3cccc(OC)c3F)c2)c(C(N)=O)cc1F)[C@H](C)N` [Example 006-281, 6-(((2S,3R)-2-aminopentan-3-yl)amino)-5-fluoro-2-((2-(2-fluoro-3-methoxyphenyl)pyridin-4-yl)amino)nicotinamide], the IC50 in experiment [1] was below 10 nM; in the experiment with THP-1 cells [2], below 65 nM.
For `CCC[C@@H](Nc1nc(Nc2ccnc(-c3ccc(OC)cc3F)c2)c(C(N)=O)cc1F)[C@H](C)N` [Example 006-336, 6-(((2S,3R)-2-aminohexan-3-yl)amino)-5-fluoro-2-((2-(2-fluoro-4-methoxyphenyl)pyridin-4-yl)amino)nicotinamide], in that order: below 10 nM and 130 to 200 nM.
Regarding `CCC[C@@H](Nc1nc(Nc2ccc3c(cnn3CCOC)c2)c(C(N)=O)cc1F)[C@H](C)N` [Example 006-314, 6-(((2S,3R)-2-aminohexan-3-yl)amino)-5-fluoro-2-((1-(2-methoxyethyl)-1H-indazol-5-yl)amino)nicotinamide], the IC50 in experiment [1] is below 10 nM; in the experiment on THP-1 cells [2] it was below 65 nM.
Regarding `NC(=O)c1cc(F)c(NC2CCCCC2N)nc1Nc1ccnc(-n2cncn2)c1` (stereo not shown) [Example 002-114], the IC50 in experiment [1] is below 10 nM; in the experiment on THP-1 cells [2], below 65 nM.
For `CCOCCOCCOc1ccc2cc(Nc3nc(NC4CCCCC4N)c(F)cc3C(N)=O)ccc2n1` (stereo not shown) [Example 002-100], the IC50 in experiment [1] is below 10 nM; in the experiment on THP-1 cells [2] it was 130 to 200 nM.
In the case of `COc1ccc2cc(Nc3nc(N[C@@H](CN)CC(C)C)c(F)cc3C(N)=O)cnc2c1` [Example 006-176, (R)-6-((1-amino-4-methylpentan-2-yl)amino)-5-fluoro-2-((7-methoxyquinolin-3-yl)amino)nicotinamide], the figures for the IC50 (in experiment [1]; in the experiment with THP-1 cells [2]) were below 10 nM and 65 to 130 nM, respectively.
As for `NC(=O)c1cc(F)c(N[C@@H]2CCCC[C@@H]2N)nc1Nc1cncc(-c2ccno2)c1` (relative stereo) [Example 004-141, 6-(cis-2-aminocyclohexylamino)-5-fluoro-2-((5-(isoxazol-5-yl)pyridin-3-yl)amino)-nicotinamide], the IC50 in experiment [1] is below 10 nM; in the experiment on THP-1 cells [2], 65 to 130 nM.
Regarding `C[C@H](N)[C@@H](C)Nc1nc(Nc2cncc(C3CC3)c2)c(C(N)=O)cc1F` (racemic) [Example 006-193, 6-(((2R,3S)-3-aminobutan-2-yl)amino)-2-((5-cyclopropylpyridin-3-yl)amino)-5-fluoronicotinamide 6-(((2S,3R)-3-aminobutan-2-yl)amino)-2-((5-cyclopropylpyridin-3-yl)amino)-5-fluoronicotinamide], the IC50 in experiment [1] was below 10 nM; with THP-1 cells [2] it was below 65 nM.
For `CCC[C@@H](Nc1nc(Nc2ccc3c(cnn3CCOC)c2)c(C(N)=O)cc1F)[C@@H](N)CC` [Example 006-400, 6-(((3S,4R)-3-aminoheptan-4-yl)amino)-5-fluoro-2-((1-(2-methoxyethyl)-1H-indazol-5-yl)amino)nicotinamide], in that order: below 10 nM and below 65 nM.
For `Cc1cc(Nc2nc(N[C@H](C3CCC3)[C@H](C)N)c(F)cc2C(N)=O)cnc1C` [Example 006-597, 6-(((1R,2S)-2-amino-1-cyclobutylpropyl)amino)-2-((5,6-dimethylpyridin-3-yl)amino)-5-fluoronicotinamide], in that order: below 10 nM and 65 to 130 nM.
